Data taken from ChEMBL document CHEMBL1201862, “PubChem BioAssay data set” (2004).
“And” between values parts separate entries of the source, which are not always exact repeats. Equal values may be shown once.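 Step 1: Grow cells in 96-well plates. Step 2: Expose to compound for 48 hours at 5 concentrations. Step 3: Interpolate endpoints linearly; if unreached, use highest concentration. GI50 is the concentration that inhibits growth by half.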 The source made the active and inactive calls. No stated cut-off is given here; in the data, active = GI50 up to about 1.1 µM and inactive = higher.

Legend:
Assay in all cases: inhibition of tumour cell growth, NCI panel, 48 h
SNB-75 = test system: SNB-75
EKVX = test system: EKVX
NCI-H226 = test system: NCI-H226
UACC-62 = test system: UACC-62
SF-539 = test system: SF-539
SW-620 = test system: SW-620
IGROV-1 = test system: IGROV-1
RPMI-8226 = test system: RPMI-8226
RXF 393 = test system: RXF 393
BT-549 = test system: BT-549
NCI-H460 = test system: NCI-H460
SR = test system: SR
NCI/ADR-RES = test system: NCI/ADR-RES
SK-MEL-2 = test system: SK-MEL-2
HOP-92 = test system: HOP-92
K562 = test system: K562
TK-10 = test system: TK-10
HL-60 = test system: HL-60
HCT-15 = test system: HCT-15
MOLT-4 = test system: MOLT-4
MDA-MB-231 = test system: MDA-MB-231
UACC-257 = test system: UACC-257
T47D = test system: T47D
COLO 205 = test system: COLO 205
OVCAR-5 = test system: OVCAR-5
HT-29 = test system: HT-29
HCT-116 = test system: HCT-116
SK-OV-3 = test system: SK-OV-3
NCI-H23 = test system: NCI-H23
M14 = test system: M14
SN12C = test system: SN12C
CCRF-CEM = test system: CCRF-CEM
NCI-H522 = test system: NCI-H522
SF-295 = test system: SF-295
MCF7 = test system: MCF7
PC-3 = test system: PC-3
ACHN = test system: ACHN
KM12 = test system: KM12
SF-268 = test system: SF-268
HOP-62 = test system: HOP-62
MDA-MB-435 = test system: MDA-MB-435
U-251 = test system: U-251
Malme-3M = test system: Malme-3M
OVCAR-8 = test system: OVCAR-8
A498 = test system: A498
CAKI-1 = test system: CAKI-1
LOX IMVI = test system: LOX IMVI
UO-31 = test system: UO-31
A549 = test system: A549
Hs-578T = test system: Hs-578T
DU-145 = test system: DU-145
MDA-N = test system: MDA-N
OVCAR-3 = test system: OVCAR-3
SK-MEL-28 = test system: SK-MEL-28
OVCAR-4 = test system: OVCAR-4
786-0 = test system: 786-0
SNB-19 = test system: SNB-19

For `CC1CCC2(NC1)OC1CC3C4CC=C5CC(O)CCC5(C)C4CCC3(C)C1C2C` (stereo unspecified), the GI50 (SNB-75) was 4.72 µM (inactive), the GI50 (EKVX) was 22.5 µM (inactive) and 37.4 µM (inactive) and the GI50 (NCI-H226) was 54 µM (inactive) and 27.8 µM (inactive). The GI50 (UACC-62) was 27.2 µM (inactive) and 18.1 µM (inactive), the GI50 (SF-539) was 17.3 µM (inactive) and 10.9 µM (inactive) and the GI50 (SW-620) was 18.5 µM (inactive) and 27.8 µM (inactive). For the same molecule, the GI50 (IGROV-1) was 32.5 µM (inactive) and 35 µM (inactive), the GI50 (RPMI-8226) was 20.6 µM (inactive) and 10.9 µM (inactive) and the GI50 (RXF 393) was 25.2 µM (inactive) and 16.8 µM (inactive). The GI50 (BT-549) was 32.8 µM (inactive) and 48.5 µM (inactive), the GI50 (NCI-H460) was 25.9 µM (inactive) and 14.1 µM (inactive) and the GI50 (SR) was 4 µM (inactive) and 2.87 µM (inactive). The GI50 (NCI/ADR-RES) was 13.2 µM (inactive) and 14.4 µM (inactive), the GI50 (SK-MEL-2) was 29.9 µM (inactive) and 19.5 µM (inactive) and the GI50 (HOP-92) was 19.5 µM (inactive) and 17.5 µM (inactive). For the same molecule, the GI50 (K562) was 14.9 µM (inactive), the GI50 (TK-10) was 12.4 µM (inactive) and 20.4 µM (inactive) and the GI50 (HL-60) was 15.1 µM (inactive) and 11.6 µM (inactive). The GI50 (HCT-15) was 32.5 µM and 38.8 µM, the GI50 (MOLT-4) was 18.3 µM (inactive) and 18.6 µM (inactive) and the GI50 (MDA-MB-231) was 12.8 µM (inactive) and 24.9 µM (inactive). The GI50 (UACC-257) was 55.8 µM (inactive) and 49.1 µM (inactive), the GI50 (T47D) was 23.4 µM (inactive) and 17.5 µM (inactive) and the GI50 (COLO 205) was 58.5 µM (inactive) and 40.6 µM (inactive). The GI50 (OVCAR-5) was 39.1 µM (inactive) and 40.3 µM (inactive), the GI50 (HT-29) was 24.1 µM (inactive) and 12.5 µM (inactive) and the GI50 (HCT-116) was 18.8 µM (inactive) and 9.86 µM (inactive). The GI50 (SK-OV-3) was 24.8 µM (inactive) and 15.7 µM (inactive), the GI50 (NCI-H23) was 39.4 µM (inactive) and 37.1 µM (inactive) and the GI50 (M14) was 76.6 µM (inactive) and 42.1 µM (inactive). The GI50 (SN12C) was 15 µM (inactive) and 22.8 µM (inactive), the GI50 (CCRF-CEM) was 12.4 µM (inactive) and 15.2 µM (inactive) and the GI50 (NCI-H522) was 31.1 µM (inactive) and 22.4 µM (inactive). The GI50 (SF-295) was 24.9 µM (inactive) and 18.7 µM (inactive), the GI50 (MCF7) was 23.2 µM (inactive) and 42.9 µM (inactive) and the GI50 (PC-3) was 22.7 µM (inactive) and 34.9 µM (inactive).

`COc1ccc(NC(=O)N(C)CC2(O)CCC(C(C)(C)C)CC2)cc1` (stereo unspecified) was tested, and the GI50 (ACHN) was > 100 µM (inactive), the GI50 (SNB-75) was 52.6 µM (inactive) and the GI50 (EKVX) was 56.4 µM (inactive). The GI50 (UACC-62) was 35.5 µM (inactive), the GI50 (SF-539) was > 100 µM (inactive) and the GI50 (SW-620) was > 100 µM (inactive). The GI50 (KM12) was 42.7 µM (inactive), the GI50 (SF-268) was > 100 µM (inactive) and the GI50 (IGROV-1) was > 100 µM (inactive). For the same molecule, the GI50 (HOP-62) was > 100 µM (inactive), the GI50 (RPMI-8226) was 21 µM (inactive) and the GI50 (RXF 393) was 24.8 µM (inactive). The GI50 (BT-549) was 63.4 µM (inactive), the GI50 (NCI-H460) was 59.6 µM (inactive) and the GI50 (MDA-MB-435) was 57.1 µM (inactive). For the same molecule, the GI50 (U-251) was > 100 µM (inactive), the GI50 (Malme-3M) was 24.8 µM (inactive) and the GI50 (OVCAR-8) was 60.8 µM (inactive). For the same molecule, the GI50 (SR) was > 100 µM (inactive), the GI50 (NCI/ADR-RES) was 54.5 µM (inactive) and the GI50 (A498) was 81.3 µM (inactive). For the same molecule, the GI50 (CAKI-1) was < 0.01 µM (active), the GI50 (LOX IMVI) was 25.2 µM (inactive) and the GI50 (UO-31) was 30.6 µM (inactive). The GI50 (A549) was 90.6 µM (inactive), the GI50 (Hs-578T) was 33.9 µM (inactive) and the GI50 (DU-145) was > 100 µM (inactive). The GI50 (SK-MEL-2) was 63.8 µM (inactive), the GI50 (HOP-92) was 3.66 µM (inactive) and the GI50 (K562) was 66.2 µM (inactive). For the same molecule, the GI50 (MDA-N) was 55.1 µM (inactive), the GI50 (OVCAR-3) was 23 µM (inactive) and the GI50 (TK-10) was 37 µM (inactive). For the same molecule, the GI50 (HL-60) was 63.5 µM (inactive), the GI50 (HCT-15) was 61.7 µM and the GI50 (MOLT-4) was 52.6 µM (inactive). For the same molecule, the GI50 (MDA-MB-231) was 41.8 µM (inactive), the GI50 (UACC-257) was 33.9 µM (inactive) and the GI50 (COLO 205) was 36.1 µM (inactive). The GI50 (OVCAR-5) was > 100 µM (inactive), the GI50 (HT-29) was 32.5 µM (inactive) and the GI50 (HCT-116) was 83.4 µM (inactive). The GI50 (SK-OV-3) was 80.9 µM (inactive), the GI50 (NCI-H23) was 99.3 µM (inactive) and the GI50 (M14) was > 100 µM (inactive). For the same molecule, the GI50 (SK-MEL-28) was > 100 µM (inactive), the GI50 (SN12C) was > 100 µM (inactive) and the GI50 (OVCAR-4) was 66.2 µM (inactive). The GI50 (CCRF-CEM) was 42.5 µM (inactive), the GI50 (NCI-H522) was 32.7 µM (inactive) and the GI50 (786-0) was > 100 µM (inactive). The GI50 (SF-295) was 29 µM (inactive), the GI50 (MCF7) was 19.4 µM (inactive) and the GI50 (SNB-19) was > 100 µM (inactive). The GI50 (PC-3) was 14.7 µM (inactive).
